SMILES strings stand for the structures. The source made the active and inactive calls.

These results are taken from ChEMBL document CHEMBL1201862, “PubChem BioAssay data set” (2004).

Data set [1] concerns the target T1, Alkaline phosphatase, tissue-nonspecific isozyme (Homo sapiens, UniProt P05186).
T1 sequence (P05186 whole entry): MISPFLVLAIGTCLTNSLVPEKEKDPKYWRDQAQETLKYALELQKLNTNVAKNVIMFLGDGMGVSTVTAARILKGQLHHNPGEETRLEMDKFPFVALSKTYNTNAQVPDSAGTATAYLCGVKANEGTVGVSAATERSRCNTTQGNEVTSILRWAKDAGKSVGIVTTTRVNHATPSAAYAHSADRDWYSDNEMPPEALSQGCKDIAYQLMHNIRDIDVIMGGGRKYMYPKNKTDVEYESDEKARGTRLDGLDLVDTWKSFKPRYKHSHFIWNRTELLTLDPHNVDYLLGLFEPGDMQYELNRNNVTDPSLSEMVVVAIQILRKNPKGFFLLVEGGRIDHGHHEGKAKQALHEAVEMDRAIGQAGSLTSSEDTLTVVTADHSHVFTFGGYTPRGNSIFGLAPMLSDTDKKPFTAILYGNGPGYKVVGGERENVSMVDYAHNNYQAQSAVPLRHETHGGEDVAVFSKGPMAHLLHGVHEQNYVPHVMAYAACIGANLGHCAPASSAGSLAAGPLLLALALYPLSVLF
In words: potency against alkaline phosphatase TNAP – biochemical, luminescent, dose response, SAR follow-up (AID 1056).

Data set [2] deals with Glyceraldehyde-3-phosphate dehydrogenase (Homo sapiens, UniProt P04406).
Glyceraldehyde-3-phosphate dehydrogenase, sequence (P04406 whole entry, the tested form may be a part): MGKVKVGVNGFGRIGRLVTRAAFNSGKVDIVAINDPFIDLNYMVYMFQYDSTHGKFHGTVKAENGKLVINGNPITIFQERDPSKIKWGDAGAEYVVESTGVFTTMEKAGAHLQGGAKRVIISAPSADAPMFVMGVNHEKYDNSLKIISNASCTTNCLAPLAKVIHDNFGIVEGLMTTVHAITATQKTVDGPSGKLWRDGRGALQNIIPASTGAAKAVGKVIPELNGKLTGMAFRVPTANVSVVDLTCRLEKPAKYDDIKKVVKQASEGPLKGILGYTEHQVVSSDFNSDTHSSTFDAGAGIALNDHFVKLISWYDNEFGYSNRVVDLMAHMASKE
For data set [3], the target named is T2, Carboxy-terminal domain RNA polymerase II polypeptide A small phosphatase 1 (Homo sapiens, UniProt Q9GZU7).
T2 sequence (Q9GZU7 whole entry): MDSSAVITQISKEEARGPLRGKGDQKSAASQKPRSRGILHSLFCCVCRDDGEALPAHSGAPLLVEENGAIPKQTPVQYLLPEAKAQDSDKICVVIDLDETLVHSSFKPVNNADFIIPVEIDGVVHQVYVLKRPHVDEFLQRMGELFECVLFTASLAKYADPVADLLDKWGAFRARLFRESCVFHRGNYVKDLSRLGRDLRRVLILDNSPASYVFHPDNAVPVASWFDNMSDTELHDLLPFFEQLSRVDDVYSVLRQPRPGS
The experiment in a line: CTDSP1 inhibitors, concentration-response, biochemical, absorbance readout, ultra-high-throughput screen actives (AID 540297). In kind it is functional.

The nature of data set [4]: viability loss in THP-1 monocytes – THP-1 cells, cytotoxicity control for Vif-APOBEC3G degradation inhibitor project, dose response (AID 1117359). Type of data set: functional. As to conditions: THP-1.
For data set [5], the target named is Voltage-gated inwardly rectifying potassium channel KCNH2 (Homo sapiens, UniProt Q12809). Particulars: Potency.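 Note: confirmatory quantitative high-throughput screen measuring inhibition of hERG channel activity.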
Voltage-gated inwardly rectifying potassium channel KCNH2, sequence (Q12809 whole entry): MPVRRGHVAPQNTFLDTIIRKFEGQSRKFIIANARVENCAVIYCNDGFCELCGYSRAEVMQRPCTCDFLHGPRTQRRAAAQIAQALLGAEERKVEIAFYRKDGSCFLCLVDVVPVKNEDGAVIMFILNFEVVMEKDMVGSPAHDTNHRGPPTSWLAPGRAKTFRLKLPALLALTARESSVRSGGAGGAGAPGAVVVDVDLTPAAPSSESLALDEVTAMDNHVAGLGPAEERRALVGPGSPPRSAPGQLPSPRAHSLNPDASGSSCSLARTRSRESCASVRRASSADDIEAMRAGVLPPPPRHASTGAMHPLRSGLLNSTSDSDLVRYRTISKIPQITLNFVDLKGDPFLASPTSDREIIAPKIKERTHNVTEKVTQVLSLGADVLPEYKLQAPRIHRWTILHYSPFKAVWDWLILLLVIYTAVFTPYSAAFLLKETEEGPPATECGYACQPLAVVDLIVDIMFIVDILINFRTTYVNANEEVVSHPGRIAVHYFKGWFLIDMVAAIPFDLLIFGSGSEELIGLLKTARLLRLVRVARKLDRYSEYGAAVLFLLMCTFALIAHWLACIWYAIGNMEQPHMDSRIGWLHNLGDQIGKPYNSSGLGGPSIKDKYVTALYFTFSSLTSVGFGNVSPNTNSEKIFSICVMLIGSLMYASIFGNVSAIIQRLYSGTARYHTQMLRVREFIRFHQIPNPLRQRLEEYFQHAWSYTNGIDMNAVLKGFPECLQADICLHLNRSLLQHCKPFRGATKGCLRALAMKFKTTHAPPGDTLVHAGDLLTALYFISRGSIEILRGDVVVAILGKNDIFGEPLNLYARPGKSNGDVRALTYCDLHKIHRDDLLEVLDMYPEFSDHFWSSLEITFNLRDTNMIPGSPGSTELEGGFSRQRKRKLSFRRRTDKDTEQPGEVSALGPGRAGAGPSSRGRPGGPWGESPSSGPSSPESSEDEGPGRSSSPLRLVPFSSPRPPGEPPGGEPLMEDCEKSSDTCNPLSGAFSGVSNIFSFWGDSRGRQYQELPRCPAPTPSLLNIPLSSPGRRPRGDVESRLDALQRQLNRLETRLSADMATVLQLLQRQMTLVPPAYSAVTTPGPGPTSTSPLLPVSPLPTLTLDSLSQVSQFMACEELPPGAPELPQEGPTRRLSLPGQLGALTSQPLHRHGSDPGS
Another data set concerns HeLa. The experiment in a line: ATP-based viability loss in HeLa cells – cell-based, CellTiter-Glo luminescence, cherry-pick samples, cytotoxicity control for MITF activator project, dose response (AID 540259). Type of data set: functional. Particulars: Homo sapiens.
In another data set the target is T3, Aminopeptidase N (Plasmodium falciparum FcB1/Columbia, UniProt O96935).
T3 sequence (O96935 whole entry): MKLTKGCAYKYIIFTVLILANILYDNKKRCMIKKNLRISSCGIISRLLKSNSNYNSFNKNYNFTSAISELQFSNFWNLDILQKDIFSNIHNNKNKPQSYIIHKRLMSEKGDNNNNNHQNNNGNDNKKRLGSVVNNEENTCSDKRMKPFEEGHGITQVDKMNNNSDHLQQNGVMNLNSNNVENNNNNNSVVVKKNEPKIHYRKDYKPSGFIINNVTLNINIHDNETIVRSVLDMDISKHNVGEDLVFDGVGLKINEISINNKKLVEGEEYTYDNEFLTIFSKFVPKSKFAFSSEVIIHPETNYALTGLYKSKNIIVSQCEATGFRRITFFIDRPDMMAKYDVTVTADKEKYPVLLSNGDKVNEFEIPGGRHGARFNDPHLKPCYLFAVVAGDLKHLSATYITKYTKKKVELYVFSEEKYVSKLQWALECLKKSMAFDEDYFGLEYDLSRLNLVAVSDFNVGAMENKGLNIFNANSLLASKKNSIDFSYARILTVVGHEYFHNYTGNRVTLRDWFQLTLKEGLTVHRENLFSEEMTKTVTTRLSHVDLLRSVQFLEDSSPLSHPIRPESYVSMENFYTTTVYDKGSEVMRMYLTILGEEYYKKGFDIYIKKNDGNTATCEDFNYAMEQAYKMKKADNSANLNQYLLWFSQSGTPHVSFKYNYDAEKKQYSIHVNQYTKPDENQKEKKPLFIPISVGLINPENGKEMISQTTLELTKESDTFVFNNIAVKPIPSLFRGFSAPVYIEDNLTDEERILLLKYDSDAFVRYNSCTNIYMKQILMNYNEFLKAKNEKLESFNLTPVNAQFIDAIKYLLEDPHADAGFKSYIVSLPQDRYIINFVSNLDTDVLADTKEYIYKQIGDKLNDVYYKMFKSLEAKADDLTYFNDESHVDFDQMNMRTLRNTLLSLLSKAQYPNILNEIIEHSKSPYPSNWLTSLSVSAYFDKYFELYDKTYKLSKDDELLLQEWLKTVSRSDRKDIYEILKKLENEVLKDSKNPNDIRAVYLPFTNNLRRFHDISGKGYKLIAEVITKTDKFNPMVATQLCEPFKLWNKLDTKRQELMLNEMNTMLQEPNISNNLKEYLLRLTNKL
In words: malaria alanyl aminopeptidase activity blockers – biochemical, fluorogenic H-Leu-NHMec substrate, 1536-well (AID 1445). Further details: species or system Plasmodium falciparum 3D7, 3D7.

The next data set addresses Protein Wnt-3a (Mus musculus, UniProt P27467). In words: antagonism of Wnt3a pathway luciferase reporter – Wnt-LIGHT cells, luminescence, selectivity assay for Gli-SUFU antagonist project, dose response (AID 651570).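 Note: Wnt-LIGHT reporter cells stimulated with conditioned medium from Wnt3a-producing cells.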 Type of data set: functional. As to conditions: read-out: IC50_Mean. A general note: Reporter assays use an easily measured gene product as a stand-in for the process of interest.

For the next data set, the system named is INS1. In words: INS-1E survival protection against cytokine death – cell-based, luminescence, retest, dose response (AID 449756).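 Note: cell death triggered by IL-1 beta plus TNF-alpha plus IFN-gamma mixture; protective hits raise ATP signal compared with cytokine alone wells.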 Type of data set: functional. Particulars: Rattus norvegicus.
For the next data set, the system named is Vero. In words: cells. Type of data set: functional. Particulars: Chlorocebus sabaeus.
Data set [6] in a line: Luminescence Cell-Based Dose Retest to Confirm Inhibitors of Cancer Stem Cells. [Related pubchem assays (depositor defined):AID2717, AID2721]. Type of data set: functional. As to conditions: Homo sapiens.
Data set [7] concerns the target Dual specificity tyrosine-phosphorylation-regulated kinase 1A (Rattus norvegicus, UniProt Q63470). Type of data set: biochemical, Homo sapiens.
In data set [8] the target is Mitogen-activated protein kinase 10 (Homo sapiens, UniProt P53779). The experiment in a line: Dose response biochemical screening assay for inhibitors of c-Jun N-Terminal Kinase 3 (JNK3). [Related pubchem assays: 746 ].
Mitogen-activated protein kinase 10, sequence (P53779 whole entry): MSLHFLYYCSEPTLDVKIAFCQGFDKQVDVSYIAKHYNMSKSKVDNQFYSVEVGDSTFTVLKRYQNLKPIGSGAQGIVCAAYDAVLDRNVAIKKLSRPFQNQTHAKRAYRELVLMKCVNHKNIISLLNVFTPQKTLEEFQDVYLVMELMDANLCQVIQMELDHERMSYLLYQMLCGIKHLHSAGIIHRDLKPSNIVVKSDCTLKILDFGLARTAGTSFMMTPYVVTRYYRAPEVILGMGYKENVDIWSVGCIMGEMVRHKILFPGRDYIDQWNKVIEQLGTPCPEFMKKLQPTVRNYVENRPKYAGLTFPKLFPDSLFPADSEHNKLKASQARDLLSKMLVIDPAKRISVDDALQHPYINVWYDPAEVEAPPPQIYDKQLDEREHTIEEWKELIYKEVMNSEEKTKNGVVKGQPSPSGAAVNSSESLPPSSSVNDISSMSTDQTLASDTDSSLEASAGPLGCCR
A further data set deals with T4, Cytochrome P450 1A2 (Homo sapiens, UniProt P05177).
T4 sequence (P05177 whole entry): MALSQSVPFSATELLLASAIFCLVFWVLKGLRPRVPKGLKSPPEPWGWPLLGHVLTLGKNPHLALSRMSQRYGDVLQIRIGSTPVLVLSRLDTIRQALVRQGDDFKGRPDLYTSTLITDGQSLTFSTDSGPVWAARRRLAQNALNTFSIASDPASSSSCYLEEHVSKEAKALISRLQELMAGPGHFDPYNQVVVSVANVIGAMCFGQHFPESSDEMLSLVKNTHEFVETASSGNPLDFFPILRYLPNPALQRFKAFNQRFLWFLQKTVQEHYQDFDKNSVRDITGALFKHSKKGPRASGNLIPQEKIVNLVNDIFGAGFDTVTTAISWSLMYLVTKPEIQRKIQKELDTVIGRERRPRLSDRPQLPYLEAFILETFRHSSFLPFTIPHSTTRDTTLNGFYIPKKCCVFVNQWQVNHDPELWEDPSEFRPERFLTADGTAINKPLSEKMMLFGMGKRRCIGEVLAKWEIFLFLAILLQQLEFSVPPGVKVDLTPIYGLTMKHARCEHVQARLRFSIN

Another data set addresses Cytochrome P450 3A4 (Homo sapiens, UniProt P08684).
Another data set concerns the target Cytochrome P450 2D6 (Homo sapiens, UniProt P10635).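 Note: CYP2D6 member of a cytochrome P450 panel assay.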
The next data set has as its target Cytochrome P450 2C19 (Homo sapiens, UniProt P33261). The experiment in a line: Cytochrome panel assay with activity outcomes. Panel member name: p450-cyp2c19 Compounds with AC50 equal or less than 10 uM are considered active. In kind it is functional. Particulars: read-out: AC50.
Data set [9] is described as follows: fluconazole-exposed Candida albicans growth modulators – fluorescence, retest, confirmation (AID 2467). In kind it is functional, cell-based.
Data set [10] can be described thus: NIH-3T3 fibroblast cytotoxicity, dose response, cytotoxicity control, cell-based, fluorescence, Alamar Blue, secondary assay (AID 2327).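 Note: NIH-3T3 mouse fibroblasts cultured with fluconazole at 8 µg/mL.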 Type of data set: functional.
The next data set has as its target Large T antigen (Simian virus 40, UniProt P03070). Type of data set: functional, Betapolyomavirus macacae.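 Note: Confirmatory-stage PubChem screen for compounds that inhibit SV40 T antigen.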
Data set [11] deals with T5, Rac GTPase-activating protein 1 (Homo sapiens, UniProt Q9H0H5).
T5 sequence (Q9H0H5 whole entry): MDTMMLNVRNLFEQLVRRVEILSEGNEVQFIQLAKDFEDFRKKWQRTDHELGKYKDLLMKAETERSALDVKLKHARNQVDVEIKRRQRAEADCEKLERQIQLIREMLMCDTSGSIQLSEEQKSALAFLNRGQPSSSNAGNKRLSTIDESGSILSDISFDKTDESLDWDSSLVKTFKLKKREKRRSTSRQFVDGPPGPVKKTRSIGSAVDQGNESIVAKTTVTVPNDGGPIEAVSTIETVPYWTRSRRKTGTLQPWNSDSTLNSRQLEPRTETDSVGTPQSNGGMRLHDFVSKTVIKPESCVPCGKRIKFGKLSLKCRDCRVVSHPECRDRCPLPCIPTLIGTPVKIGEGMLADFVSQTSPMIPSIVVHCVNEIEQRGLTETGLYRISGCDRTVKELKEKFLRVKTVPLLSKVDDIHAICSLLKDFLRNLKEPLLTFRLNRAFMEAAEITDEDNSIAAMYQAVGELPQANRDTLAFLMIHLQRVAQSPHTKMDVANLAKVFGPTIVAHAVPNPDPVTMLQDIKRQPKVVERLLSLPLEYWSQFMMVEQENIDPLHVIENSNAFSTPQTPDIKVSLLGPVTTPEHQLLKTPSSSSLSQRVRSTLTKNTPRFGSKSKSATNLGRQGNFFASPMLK
The experiment in a line: blockers of MgcRacGAP-driven Rac1 GTP hydrolysis – biochemical, ADP Hunter fluorescence, primary and confirmatory, confirmation (AID 624330). In kind it is functional.

Cytochrome P450 2C19, sequence (P33261 whole entry): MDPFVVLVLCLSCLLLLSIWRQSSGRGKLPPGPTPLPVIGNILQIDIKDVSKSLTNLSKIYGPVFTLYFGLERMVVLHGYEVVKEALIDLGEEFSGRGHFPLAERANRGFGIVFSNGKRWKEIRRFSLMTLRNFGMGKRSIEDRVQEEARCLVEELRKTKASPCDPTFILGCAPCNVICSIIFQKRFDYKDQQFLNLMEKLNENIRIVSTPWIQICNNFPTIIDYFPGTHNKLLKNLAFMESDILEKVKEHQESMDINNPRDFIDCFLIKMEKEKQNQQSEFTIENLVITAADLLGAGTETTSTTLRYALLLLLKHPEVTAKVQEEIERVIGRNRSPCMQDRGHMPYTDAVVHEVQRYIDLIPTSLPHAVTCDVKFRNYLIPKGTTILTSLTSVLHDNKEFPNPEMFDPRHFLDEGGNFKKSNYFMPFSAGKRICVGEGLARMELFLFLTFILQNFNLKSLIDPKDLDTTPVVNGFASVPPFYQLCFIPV
Large T antigen, sequence (P03070 whole entry): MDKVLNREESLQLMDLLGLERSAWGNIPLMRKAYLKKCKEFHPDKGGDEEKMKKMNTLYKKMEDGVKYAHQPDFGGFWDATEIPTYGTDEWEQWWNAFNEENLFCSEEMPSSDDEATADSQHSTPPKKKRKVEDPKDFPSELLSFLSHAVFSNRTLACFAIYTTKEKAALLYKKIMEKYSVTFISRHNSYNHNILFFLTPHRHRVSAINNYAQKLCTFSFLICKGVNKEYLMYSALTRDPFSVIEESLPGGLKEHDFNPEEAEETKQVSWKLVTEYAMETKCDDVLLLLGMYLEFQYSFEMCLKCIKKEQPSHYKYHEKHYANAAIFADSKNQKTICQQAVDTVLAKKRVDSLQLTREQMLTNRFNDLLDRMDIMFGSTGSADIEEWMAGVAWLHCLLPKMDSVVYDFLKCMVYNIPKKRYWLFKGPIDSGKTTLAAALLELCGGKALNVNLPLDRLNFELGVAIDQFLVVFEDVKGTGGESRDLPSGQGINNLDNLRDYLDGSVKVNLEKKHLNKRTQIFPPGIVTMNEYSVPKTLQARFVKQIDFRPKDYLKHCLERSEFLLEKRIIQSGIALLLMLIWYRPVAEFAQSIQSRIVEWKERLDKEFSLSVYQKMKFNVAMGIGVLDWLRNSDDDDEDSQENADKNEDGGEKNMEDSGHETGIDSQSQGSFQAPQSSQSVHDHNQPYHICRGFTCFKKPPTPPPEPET
Protein Wnt-3a, sequence (P27467 whole entry): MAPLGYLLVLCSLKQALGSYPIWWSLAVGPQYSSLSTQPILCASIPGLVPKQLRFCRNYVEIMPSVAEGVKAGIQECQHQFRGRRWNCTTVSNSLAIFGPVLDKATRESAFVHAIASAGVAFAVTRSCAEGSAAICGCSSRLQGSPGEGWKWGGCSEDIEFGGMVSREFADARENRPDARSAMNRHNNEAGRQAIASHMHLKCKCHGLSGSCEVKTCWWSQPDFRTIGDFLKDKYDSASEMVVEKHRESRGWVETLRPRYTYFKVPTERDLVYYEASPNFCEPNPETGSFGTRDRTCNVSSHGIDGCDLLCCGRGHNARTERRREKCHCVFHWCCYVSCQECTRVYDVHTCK
Cytochrome P450 2D6, sequence (P10635 whole entry): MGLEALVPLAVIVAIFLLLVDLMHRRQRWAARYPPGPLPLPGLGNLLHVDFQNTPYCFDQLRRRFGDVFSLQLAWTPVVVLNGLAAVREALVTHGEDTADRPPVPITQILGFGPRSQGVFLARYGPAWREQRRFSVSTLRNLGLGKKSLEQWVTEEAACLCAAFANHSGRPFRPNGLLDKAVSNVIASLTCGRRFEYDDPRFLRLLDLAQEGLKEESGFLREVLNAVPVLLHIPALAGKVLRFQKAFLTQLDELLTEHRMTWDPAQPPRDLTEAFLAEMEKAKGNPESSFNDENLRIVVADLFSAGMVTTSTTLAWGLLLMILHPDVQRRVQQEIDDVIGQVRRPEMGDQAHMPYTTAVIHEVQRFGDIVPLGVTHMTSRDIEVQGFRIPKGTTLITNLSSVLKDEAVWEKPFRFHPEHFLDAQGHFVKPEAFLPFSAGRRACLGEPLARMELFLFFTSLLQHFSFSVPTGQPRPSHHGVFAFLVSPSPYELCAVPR
Cytochrome P450 3A4, sequence (P08684 whole entry): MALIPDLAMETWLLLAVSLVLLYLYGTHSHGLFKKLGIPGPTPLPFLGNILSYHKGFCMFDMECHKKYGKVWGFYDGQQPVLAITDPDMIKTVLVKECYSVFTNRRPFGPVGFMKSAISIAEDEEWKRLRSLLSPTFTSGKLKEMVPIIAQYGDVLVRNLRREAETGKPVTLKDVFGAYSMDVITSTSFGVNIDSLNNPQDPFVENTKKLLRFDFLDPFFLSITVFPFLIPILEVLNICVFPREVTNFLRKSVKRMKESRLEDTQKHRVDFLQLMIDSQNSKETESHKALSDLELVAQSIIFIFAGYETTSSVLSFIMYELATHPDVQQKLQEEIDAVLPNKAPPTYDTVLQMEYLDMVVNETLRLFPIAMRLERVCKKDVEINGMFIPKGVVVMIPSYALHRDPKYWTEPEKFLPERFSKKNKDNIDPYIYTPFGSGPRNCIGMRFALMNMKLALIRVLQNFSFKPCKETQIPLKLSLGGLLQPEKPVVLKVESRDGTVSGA

As for `Cc1c(-c2ccccc2)n[nH]c1C(=O)O`, the IC50 in data set [1] was > 100 µM (inactive); in data set [2], > 100 µM (not active).
As usually defined, the CC50 is the concentration at which the toxic effect on the cells reaches its halfway point. Take `COc1ccc(NC(=O)/C(C#N)=C/c2ccc(Br)o2)cc1`: in data set [3], the IC50 was 5.43 µM (active). In addition, the half-maximal cytotoxic concentration (CC50) in data set [4] is 27.4 µM (active).
What is called AC50 is the concentration giving half of the maximal activity seen. For the molecule `CCCCC(CC)CNCC(CC)CCCC` (stereo unspecified), the AC50 in data set [5] was 10 µM (inconclusive).
On to `CCCCN1C(=O)/C(=C/C=C2\SCCN2C)SC1=S`, for which the AC50 in the data set on HeLa was 39.1 µM (active).
As to `c1ccc(CSCc2ccccc2)cc1`, the AC50 in data set [5] was 31.6 µM (inconclusive).
On to `CNc1ccc(/C=C(\CCC(=O)O)c2nc3ccccc3s2)cc1[N+](=O)[O-]`, for which the IC50 on Aminopeptidase N is 43.3 µM (active).
`CC[N+](C)(CC)CCC(c1ccccc1)C1CCCCC1` (stereo unspecified): the IC50 in data set [3] is 4.65 µM (active); at Protein Wnt-3a, 39 µM (inactive). In the data set with INS1, the AC50 is 233 µM (active).
As for `CCCCC(=O)NC(c1ccc([N+](=O)[O-])cc1)c1c(O)ccc2ccccc12` (stereo unspecified), the CC50 with Vero was 9.36 µM (active).
Turning to `O=C(Nc1ccc(Cl)c(Cl)c1)Nc1ccccc1O`, the AC50 is 49.7 µM (active) in the data set with HeLa and 5.67 µM (active) in data set [6].
In the case of `NNC(=O)c1cc(-c2cc(F)c(F)cc2F)[nH]n1`, the IC50 was 0.316 µM (active) in data set [1] and > 10 µM (inconclusive) in [2].
Turning to `Cn1c(SCC(=O)c2ccc(O)c(O)c2)nnc1-c1ccccc1`, the IC50 in data set [1] is 93.4 µM (active).
For the molecule `c1ccc(-c2noc(COc3ccc4c(c3)OCO4)n2)cc1`, the AC50 with HeLa was 339 µM (active).
In the case of `NC(=O)c1cc(Br)cc2c3c([nH]c12)CCCC3`, the AC50 in data set [7] is 9.32 µM (active). Besides, the IC50 in [8] is 12.5 µM (not active).
As to `COc1ccccc1NS(=O)(=O)c1ccc(Cl)c(NC(=O)C(C)N2C(=O)c3ccccc3C2=O)c1` (stereo unspecified), the IC50 at Aminopeptidase N is 26.9 µM (active).
With `C[C@H](Cc1ccc(O)c(O)c1)[C@@H](C)Cc1ccc(O)c(O)c1` [MASOPROCOL], the AC50 was 25.1 µM (inconclusive) on Cytochrome P450 1A2; “inconclusive” at Cytochrome P450 3A4; 39.8 µM (inconclusive) at Cytochrome P450 2D6; 15.8 µM (inconclusive) on Cytochrome P450 2C19; 35.5 µM (inconclusive) in data set [5].
On to `O=C(O)/C=C/c1ccc(/C=C/C(=O)O)cc1`, for which the AC50 in [5] is 79.4 µM (inconclusive).
With `CN1CCN(c2ccc3ccccc3n2)CC1`, in data set [5], the AC50 was 35.5 µM (inconclusive).
For the molecule `CCN1C(=O)/C(=C2/Sc3ccccc3N2CC)S/C1=N\c1nc[nH]n1`, in data set [7], the AC50 is 1.04 µM (active).
The EC50 is the concentration at which the effect is half-maximal. As to `O=C(Nc1cccc(Cl)c1)Nc1nccs1`, the EC50 in [9] is 1.17 µM (active); in data set [10], > 160 µM (inactive). The AC50 in data set [7] was 8.46 µM (active).
With `O=C1OCC/C1=C\c1ccc(O)cc1`, the IC50 on Large T antigen is 17.4 µM (active); in data set [11], 28.9 µM (active). For the same molecule, the AC50 in [7] is 0.585 µM (active).
As for `CS(=O)(=O)Nc1ccc(-c2cc(/C=C3\SC(N)=NC3=O)cnc2O)cc1`, the AC50 in data set [7] is 0.265 µM (active).
